How the values were obtained:
[1] = target: T1, IN^PFV-viral DNA interaction (Human spumaretrovirus, UniProt P14350); assay: IN-viral DNA interaction by steady-state fluorescence anisotropy of Fl-DNA with increasing drug concentrations; assay type: binding, prototype foamy virus (PFV); details: 400 nM IN^PFV, 4 nM Fl-PFV^CAAT, 10 mM Mg2+, up to 20 µM drug; means INSTI did not prevent IN-DNA interactions
T1 construct: The full-length wt IN^PFV, the three single mutants of the catalytic triad; His; made in house; host or cells: E. coli BL21-CodonPlus (DE3)-RIPL
Protocol: Their incapability to prevent or disrupt IN-viral DNA complexes was consistently observed over the whole concentration range, regardless of the INSTI tested (Supplementary Fig. S7).
(§1) IN^PFV binding to DNA was measured by fluorescence anisotropy on a Beacon Instrument (Panvera, Madison, WI, USA) as previously described[25],[51], using a double-stranded 21-mer Fl-labeled DNA mimicking the PFV U5 LTR end also referred to as DNA#1 in Table 1 (labeled at the 5′-end of the reactive strand). IN binding to Fl-PFV^CAAT (or Fl-DNA#1) was compared to the binding to other DNA sequences (Fl-DNA#8 #9 #13). DNA annealing was obtained by mixing equimolar amounts of complementary strands in buffer A, heating to 85 °C for 5 min and slow cooling to 25 °C. DNA-binding experiments were performed at 25 °C in buffer A.
(§2) Figure S7. Differential effect of INSTI and INBI compounds on the INPFV-viral DNA interaction.
(§3) The formation of IN-DNA complexes was measured by steady-state fluorescence anisotropy using 400 nM INPFV and 4 nM Fl-PFVCAAT (also named Fl-DNA#1) in the presence of 10 mM Mg2+ and […]
(§4) In each plot, the starting r value (≈ 0.20) corresponds to the typical value found at saturating concentrations of IN (see Fig. S6).
(§5) The INBI compound FZ41, a member of the styrylquinoline family of inhibitors, was used as a control […]
(§6) show mean ± SD values from two independent experiments. […]

IN = details: INSTIs; cited from earlier work
wt IN^PFV (IN; WT) = target: T2, wt IN^PFV (IN; WT) (Human spumaretrovirus, UniProt P14350); assay: Inhibition of IN-viral DNA binding by steady-state fluorescence anisotropy of 4 nM Fl-PFV^CAAT with 400 nM IN, 10 mM Mg2+, 25 °C.; assay type: biochemical; details: n = 2; read-out: IC50 (IN-DNA interaction)
T2 construct: gene pol; full-length, His-tagged, expressed in E. coli BL21-CodonPlus (DE3)-RIPL
Protocol: as §2, §3, §4, §5, §6, §1

| Compound | r value of Fl-DNA (IN-DNA complex) on increasing INSTI concentration [1] | IC50 values (IN) | IC50 (wt IN^PFV (IN; WT)) [nM] |
| --- | --- | --- | --- |
| COc1cc2c(cc1Cc1cccc(Cl)c1F)c(=O)c(C(=O)O)cn2[C@H](CO)C(C)C [EVG, elvitegravir] | remained constant | low-nanomolar range | – |
| COc1cc(/C=C/c2ccc3ccc(C(=O)O)c(O)c3n2)cc(O)c1O [FZ41, FZ41 (styrylquinoline family INBI compound)] | – | – | ~800 |
| Cc1nnc(C(=O)NC(C)(C)c2nc(C(=O)NCc3ccc(F)cc3)c(O)c(=O)n2C)o1 [RAL, Raltegravir] | remained constant | low-nanomolar range | – |
